Reference: US20230085307A1, “PYRIDAZINONE COMPOUND AND HERBICIDE” (NISSAN CHEMICAL CORPORATION, priority 2019, published 2023)

Legend:
[1] = tested on: barnyard grass; experiment: Test Example 3: herbicidal effect by foliage application, Wagner pot (Table 18, symbol H); type: in vivo, barnyard grass (Echinochloa crus-galli); details: 320 g/ha
Procedure, shortened: (§1)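 Plants were sown in alluvial soil held under 0.1–0.5 cm standing water and grown 14 days in a greenhouse at 25–30 °C. An emulsifiable formulation, water-diluted to the set dose, was then sprayed onto the foliage, and effects were scored three weeks later using previously defined criteria.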

[2] = tested on: Chinese sprangletop; experiment: Test Example 3: herbicidal effect by foliage application, Wagner pot (Table 18, symbol D); type: in vivo, chinese sprangletop (Leptochloa chinensis); details: 320 g/ha
Procedure, shortened: as §1

[3] = tested on: rice flat sedge; experiment: Test Example 3: herbicidal effect by foliage application, Wagner pot (Table 18, symbol E); type: in vivo, rice flat sedge (Cyperus iria); details: 320 g/ha
Procedure, shortened: as §1

[4] = tested on: southern crabgrass; experiment: Test Example 4: herbicidal effect by soil treatment (Table 19, symbol F); type: in vivo, southern crabgrass (Digitaria ciliaris); details: amount of applied herbicide 320 g/ha
Procedure, shortened: (§2)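 In this soil treatment, the formulated compound reached the seeds only through the soil: seeds were buried about 1.5 cm deep in sterilized diluvial soil, then the diluted emulsion was sprayed over the surface. After three weeks at 25° C. to 30° C. in a greenhouse, effects were graded on criteria from an earlier test.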

[5] = tested on: green foxtail; experiment: Test Example 4: herbicidal effect by soil treatment (Table 19, symbol G); type: in vivo, green foxtail (Setaria viridis); details: amount of applied herbicide 320 g/ha
Procedure, shortened: as §2

[6] = tested on: barnyard grass; experiment: Test Example 4: herbicidal effect by soil treatment (Table 19, symbol H); type: in vivo, barnyard grass (Echinochloa crus-galli); details: amount of applied herbicide 320 g/ha
Procedure, shortened: as §2

[7] = tested on: wild oat; experiment: Test Example 4: herbicidal effect by soil treatment (Table 19, symbol I); type: in vivo, wild oat (Avena fatua); details: amount of applied herbicide 320 g/ha
Procedure, shortened: as §2

[8] = tested on: blackgrass; experiment: Test Example 4: herbicidal effect by soil treatment (Table 19, symbol J); type: in vivo, blackgrass (Alopecurus myosuroides); details: amount of applied herbicide 320 g/ha
Procedure, shortened: as §2

[9] = tested on: Italian ryegrass; experiment: Test Example 4: herbicidal effect by soil treatment (Table 19, symbol K); type: in vivo, Italian ryegrass (Lolium multiflorum); details: amount of applied herbicide 320 g/ha
Procedure, shortened: as §2

[10] = tested on: windgrass; experiment: Test Example 4: herbicidal effect by soil treatment (Table 19, symbol L); type: in vivo, windgrass (Apera spica-venti); details: amount of applied herbicide 320 g/ha
Procedure, shortened: as §2

[11] = tested on: velvetleaf; experiment: Test Example 4: herbicidal effect by soil treatment (Table 19, symbol M); type: in vivo, velvetleaf (Abutilon theophrasti); details: amount of applied herbicide 320 g/ha
Procedure, shortened: as §2

[12] = tested on: redroot pigweed; experiment: Test Example 4: herbicidal effect by soil treatment (Table 19, symbol N); type: in vivo, redroot pigweed (Amaranthus retroflexus); details: amount of applied herbicide 320 g/ha
Procedure, shortened: as §2

[13] = tested on: lambsquarters; experiment: Test Example 4: herbicidal effect by soil treatment (Table 19, symbol O); type: in vivo, lambsquarters (Chenopodium album); details: amount of applied herbicide 320 g/ha
Procedure, shortened: as §2

[14] = tested on: chickweed; experiment: Test Example 4: herbicidal effect by soil treatment (Table 19, symbol P); type: in vivo, common chickweed (Stellaria media); details: amount of applied herbicide 320 g/ha
Procedure, shortened: as §2

[15] = tested on: persian speedwell; experiment: Test Example 4: herbicidal effect by soil treatment (Table 19, symbol R); type: in vivo, Persian speedwell (Veronica persica); details: amount of applied herbicide 320 g/ha
Procedure, shortened: as §2

[16] = tested on: southern crabgrass; experiment: Test Example 5: herbicidal effect by foliage application, plastic box (Table 20, symbol F); type: in vivo, southern crabgrass (Digitaria ciliaris); details: foliage application, 320 g/ha, three weeks after application
Procedure, shortened: (§3)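 Plants were sown into sterilized diluvial soil under about 1.5 cm cover and kept in a greenhouse at 25° C. to 30° C. Fourteen days on, foliage received an even spray of the diluted emulsion. Herbicidal or crop effect was judged three weeks afterwards.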

[17] = tested on: green foxtail; experiment: Test Example 5: herbicidal effect by foliage application, plastic box (Table 20, symbol G); type: in vivo, green foxtail (Setaria viridis); details: foliage application, 320 g/ha, three weeks after application
Procedure, shortened: as §3

[18] = tested on: barnyard grass; experiment: Test Example 5: herbicidal effect by foliage application, plastic box (Table 20, symbol H); type: in vivo, barnyard grass (Echinochloa crus-galli); details: foliage application, 320 g/ha, three weeks after application
Procedure, shortened: as §3

[19] = tested on: wild oat; experiment: Test Example 5: herbicidal effect by foliage application, plastic box (Table 20, symbol I); type: in vivo, wild oat (Avena fatua); details: foliage application, 320 g/ha, three weeks after application
Procedure, shortened: as §3

[20] = tested on: blackgrass; experiment: Test Example 5: herbicidal effect by foliage application, plastic box (Table 20, symbol J); type: in vivo, blackgrass (Alopecurus myosuroides); details: foliage application, 320 g/ha, three weeks after application
Procedure, shortened: as §3

[21] = tested on: Italian ryegrass; experiment: Test Example 5: herbicidal effect by foliage application, plastic box (Table 20, symbol K); type: in vivo, Italian ryegrass (Lolium multiflorum); details: foliage application, 320 g/ha, three weeks after application
Procedure, shortened: as §3

[22] = tested on: windgrass; experiment: Test Example 5: herbicidal effect by foliage application, plastic box (Table 20, symbol L); type: in vivo, windgrass (Apera spica-venti); details: foliage application, 320 g/ha, three weeks after application
Procedure, shortened: as §3

[23] = tested on: velvetleaf; experiment: Test Example 5: herbicidal effect by foliage application, plastic box (Table 20, symbol M); type: in vivo, velvetleaf (Abutilon theophrasti); details: foliage application, 320 g/ha, three weeks after application
Procedure, shortened: as §3

[24] = tested on: redroot pigweed; experiment: Test Example 5: herbicidal effect by foliage application, plastic box (Table 20, symbol N); type: in vivo, redroot pigweed (Amaranthus retroflexus); details: foliage application, 320 g/ha, three weeks after application
Procedure, shortened: as §3

[25] = tested on: lambsquarters; experiment: Test Example 5: herbicidal effect by foliage application, plastic box (Table 20, symbol O); type: in vivo, lambsquarters (Chenopodium album); details: foliage application, 320 g/ha, three weeks after application
Procedure, shortened: as §3

[26] = tested on: chickweed; experiment: Test Example 5: herbicidal effect by foliage application, plastic box (Table 20, symbol P); type: in vivo, common chickweed (Stellaria media); details: foliage application, 320 g/ha, three weeks after application
Procedure, shortened: as §3

[27] = tested on: persian speedwell; experiment: Test Example 5: herbicidal effect by foliage application, plastic box (Table 20, symbol R); type: in vivo, Persian speedwell (Veronica persica); details: foliage application, 320 g/ha, three weeks after application
Procedure, shortened: as §3

Structure (SMILES)	herbicidal effect on H (barnyard grass), rating 0-5 [1]	herbicidal effect on D (Chinese sprangletop), rating 0-5 [2]	herbicidal effect on E (rice flat sedge), rating 0-5 [3]	herbicidal effect rating, F: southern crabgrass [4]	herbicidal effect rating, G: green foxtail [5]	herbicidal effect rating, H: barnyard grass [6]	herbicidal effect rating, I: wild oat [7]	herbicidal effect rating, J: blackgrass [8]	herbicidal effect rating, K: Italian ryegrass [9]	herbicidal effect rating, L: windgrass [10]	herbicidal effect rating, M: velvetleaf [11]	herbicidal effect rating, N: redroot pigweed [12]	herbicidal effect rating, O: lambsquarters [13]	herbicidal effect rating, P: chickweed [14]	herbicidal effect rating, R: persian speedwell [15]	herbicidal effect grade, F: southern crabgrass [16]	herbicidal effect grade, G: green foxtail [17]	herbicidal effect grade, H: barnyard grass [18]	herbicidal effect grade, I: wild oat [19]	herbicidal effect grade, J: blackgrass [20]	other results
COc1ccc(F)cc1-c1sc2ccccc2c1-c1c(O)c(C)nn(C)c1=O [1-058]	4 (Herbicidal rate of 70% or more and less than 90%)	3 (Herbicidal rate of 40% or more and less than 70%)	5 (Herbicidal rate of 90% or more (almost completely withered))	2 (Herbicidal rate of 20% or more and less than 40%)	5 (Herbicidal rate of 90% or more (almost completely withered))	3 (Herbicidal rate of 40% or more and less than 70%)	1 (Herbicidal rate of 5% or more and less than 20%)	2 (Herbicidal rate of 20% or more and less than 40%)	0 (Herbicidal rate of 5% or less (almost no effect))	0 (Herbicidal rate of 5% or less (almost no effect))	0 (Herbicidal rate of 5% or less (almost no effect))	2 (Herbicidal rate of 20% or more and less than 40%)	3 (Herbicidal rate of 40% or more and less than 70%)	5 (Herbicidal rate of 90% or more (almost completely withered))	4 (Herbicidal rate of 70% or more and less than 90%)	3 (Herbicidal rate of 40% or more and less than 70%)	4 (Herbicidal rate of 70% or more and less than 90%)	3 (Herbicidal rate of 40% or more and less than 70%)	1 (Herbicidal rate of 5% or more and less than 20%)	4 (Herbicidal rate of 70% or more and less than 90%)	herbicidal effect grade, K: Italian ryegrass [21]: 4 (Herbicidal rate of 70% or more and less than 90%); herbicidal effect grade, L: windgrass [22]: 4 (Herbicidal rate of 70% or more and less than 90%); herbicidal effect grade, M: velvetleaf [23]: 1 (Herbicidal rate of 5% or more and less than 20%); herbicidal effect grade, N: redroot pigweed [24]: 2 (Herbicidal rate of 20% or more and less than 40%); herbicidal effect grade, O: lambsquarters [25]: 0 (Herbicidal rate of 5% or less (almost no effect)); herbicidal effect grade, P: chickweed [26]: 5 (Herbicidal rate of 90% or more (almost completely withered)); herbicidal effect grade, R: persian speedwell [27]: 4 (Herbicidal rate of 70% or more and less than 90%)
CCOc1ccc(-c2sc3ccccc3c2-c2c(O)c(C)nn(C)c2=O)cn1 [1-076]	1 (Herbicidal rate of 5% or more and less than 20%)	0 (Herbicidal rate of 5% or less (almost no effect))	5 (Herbicidal rate of 90% or more (almost completely withered))	0 (Herbicidal rate of 5% or less (almost no effect))	1 (Herbicidal rate of 5% or more and less than 20%)	0 (Herbicidal rate of 5% or less (almost no effect))	0 (Herbicidal rate of 5% or less (almost no effect))	0 (Herbicidal rate of 5% or less (almost no effect))	0 (Herbicidal rate of 5% or less (almost no effect))	0 (Herbicidal rate of 5% or less (almost no effect))	0 (Herbicidal rate of 5% or less (almost no effect))	0 (Herbicidal rate of 5% or less (almost no effect))	0 (Herbicidal rate of 5% or less (almost no effect))	5 (Herbicidal rate of 90% or more (almost completely withered))	5 (Herbicidal rate of 90% or more (almost completely withered))	0 (Herbicidal rate of 5% or less (almost no effect))	0 (Herbicidal rate of 5% or less (almost no effect))	0 (Herbicidal rate of 5% or less (almost no effect))	0 (Herbicidal rate of 5% or less (almost no effect))	0 (Herbicidal rate of 5% or less (almost no effect))	herbicidal effect grade, K: Italian ryegrass [21]: 1 (Herbicidal rate of 5% or more and less than 20%); herbicidal effect grade, L: windgrass [22]: 0 (Herbicidal rate of 5% or less (almost no effect)); herbicidal effect grade, M: velvetleaf [23]: 3 (Herbicidal rate of 40% or more and less than 70%); herbicidal effect grade, N: redroot pigweed [24]: 2 (Herbicidal rate of 20% or more and less than 40%); herbicidal effect grade, O: lambsquarters [25]: 1 (Herbicidal rate of 5% or more and less than 20%); herbicidal effect grade, P: chickweed [26]: 5 (Herbicidal rate of 90% or more (almost completely withered)); herbicidal effect grade, R: persian speedwell [27]: 5 (Herbicidal rate of 90% or more (almost completely withered))
